The text below walks through data of patent US10806793B2, “Mucosal delivery of therapeutic molecules, proteins, or particles coupled to ceramide lipids” (Children's Medical Center Corporation, priority 2008, dated 2020).

For assay [1], the system named is C12-GM1 transport to the TGN. Kind of assay: Brefeldin effect on C12-GM1 transport. Type of assay: cell-based.
The conditions of assay [2]: Orskov et al., 1993; cited from earlier work.

For the compound `C[C@H]1CCC/C=C/[C@@H]2C[C@H](O)C[C@H]2[C@H](O)/C=C/C(=O)O1` [Brefeldin-1], the “effect on C12-GM1 transport to the TGN” value in assay [1] is recorded as “inhibits C12-GM1 transport to the TGN”.

Take “GLP1(7-36)amide: secreted form of GLP1 in which the carboxylic acid of Arg at position 36 has been amidated”: the potency in vivo result in assay [2] is listed as “equally potent”.

In the case of “GLP1(7-37): secreted form of GLP1 that contains a C-terminal Gly residue”, the potency in vivo entry in assay [2] is listed as “equally potent”.
